Reference: US7517857B2, “Immune-modulating peptide” (POSCO, priority 2002, dated 2009)
Where a SMILES comes first, the peptide text is derived from it. Where no end group is shown, it is not given here. [ ]: non-standard residue; d: D form.

Experiments:
[1] = tested on: human neutrophils; experiment: Superoxide generation in human neutrophils (cytochrome c reduction); type: cell-based; conditions: for superoxide generating activity: 100 nM of peptides; for O^2− (nmol/10^6 cells), superoxide generation: cytochrome c reduction
Procedure: Peripheral blood leukocyte concentrates were donated by the Ulsan Red Cross Blood Center (Ulsan, Korea). Human neutrophils were isolated according to the standard procedures of dextran sedimentation, hypotonic lysis of erythrocytes, and a lymphocyte separation medium gradient as described above (9). The isolated human neutrophils were then used promptly.
The activity of the peptides, WKYMVm, peptides of SEQ ID NOs: 1 to 24, and wkymvm on superoxide generation in human neutrophils was measured. Superoxide anion generation was quantified by measuring reduction of cytochrome c using a microtiter 96-well plate ELISA reader (Bio-Tekinstruments, EL312e, Winooski, Vt.) as described (14). The human neutrophils (1×10^6 cells/100 μl of RPMI 1640 medium per well of a 96-well plate) were preincubated with 50 μM cytochrome c at 37° C. for 1 min and then incubated with the indicated concentrations of peptides. The superoxide generation was measured as a change in light absorption at 550 nm over 5 minutes at 1 min intervals. From at least four independent experiments, peptides with active amino acids at each position were chosen.

[2] = target: T1, FPR (Homo sapiens, UniProt P21462); experiment: [Ca2+]i increase in FPR-expressing RBL-2H3 cells (fura-2); type: cell-based; conditions: for EC50 / EC50 (nM), intracellular calcium increase: fura-2 loaded; for EC50: read-out: EC50 (nM), intracellular calcium increase
T1 construct: expressed in transfected cells; host or cells: RBL-2H3 (rat basophilic leukemia) cells, G418-selected
T1 sequence (P21462 1-350): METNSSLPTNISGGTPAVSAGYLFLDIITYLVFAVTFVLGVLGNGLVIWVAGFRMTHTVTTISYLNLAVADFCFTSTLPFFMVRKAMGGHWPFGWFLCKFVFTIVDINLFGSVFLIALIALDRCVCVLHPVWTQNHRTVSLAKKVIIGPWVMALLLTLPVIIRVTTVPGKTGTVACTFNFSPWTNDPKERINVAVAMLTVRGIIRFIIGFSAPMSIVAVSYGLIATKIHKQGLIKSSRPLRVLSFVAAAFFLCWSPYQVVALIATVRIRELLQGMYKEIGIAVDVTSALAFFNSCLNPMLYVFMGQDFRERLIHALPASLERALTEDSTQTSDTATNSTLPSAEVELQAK
Procedure: FPR-expressing RBL-2H3 cells were stimulated with 10 μM of each peptide, and [Ca^2+]i was determined. The level of [Ca^2+]i was determined fluorometrically by Grynkiewicz's method using fura-2/AM (15). Briefly, prepared cells were incubated with 3 μM fura-2/AM at 37° C. for 50 min in a fresh serum-free RPMI 1640 medium under continuous stirring. 2×10^6 cells were aliquoted for each assay in Ca^2+-free Locke's solution (154 mM NaCl, 5.6 mM KCl, 1.2 mM MgCl2, 5 mM HEPES, pH 7.3, 10 mM glucose, and 0.2 mM EGTA). Fluorescence changes at the dual excitation wavelengths of 340 nm and 380 nm and the emission wavelength of 500 nm were measured, and the calibrated fluorescence ratio was translated into [Ca^2+]i. The peak level of the increased [Ca^2+]i was monitored.

Compound	superoxide generating activity [1]	O^2− (nmol/10^6 cells), superoxide generation ([1]; peptide 100 nM) [nmol/10^6 cells]	O^2− (nmol/10^6 cells), superoxide generation ([1]; peptide 10 μM) [nmol/10^6 cells]	[Ca^2+]i increasing activity [2]	EC50 [2] [nM]	EC50 (nM), intracellular calcium increase [2]
CSCC[C@H](NC(=O)[C@H](Cc1ccc(O)cc1)NC(=O)[C@@H](N)CCCCN)C(=O)N[C@H](C(=O)N[C@H](CCSC)C(N)=O)C(C)C [KYMVm-NH2, Lys-Tyr-Met-Val-D-Met-NH2]	stimulated superoxide generation	36.0 ± 3.56	49.2 ± 5.82			
CSCC[C@H](NC(=O)[C@H](Cc1ccc(O)cc1)NC(=O)[C@H](CC(=O)O)NC(=O)[C@@H](N)Cc1c[nH]c2ccccc12)C(=O)N[C@H](C(=O)N[C@H](CCSC)C(N)=O)C(C)C [WDYMVm-NH2, Trp-Asp-Tyr-Met-Val-D-Met-NH2] (H-WDYMV[dM]-NH2; N-terminus assumed)		25.8 ± 6.56	37.3 ± 5.66			
CSCC[C@H](NC(=O)[C@H](Cc1ccc(O)cc1)NC(=O)[C@H](CCC(=O)O)NC(=O)[C@@H](N)Cc1c[nH]c2ccccc12)C(=O)N[C@H](C(=O)N[C@H](CCSC)C(N)=O)C(C)C [WEYMVm-NH2, Trp-Glu-Tyr-Met-Val-D-Met-NH2] (H-WEYMV[dM]-NH2; N-terminus assumed)	stimulated superoxide generation	52.9 ± 12.78	35.3 ± 2.88			
CSCC[C@H](NC(=O)[C@H](Cc1ccc(O)cc1)NC(=O)[C@H](Cc1c[nH]cn1)NC(=O)[C@@H](N)Cc1c[nH]c2ccccc12)C(=O)N[C@H](C(=O)N[C@H](CCSC)C(N)=O)C(C)C [WHYMVm-NH2, Trp-His-Tyr-Met-Val-D-Met-NH2] (H-WHYMV[dM]-NH2; N-terminus assumed)		20.7 ± 7.85	20.7 ± 7.85	more improved affinity for the FPR against the peptide WKYMVm		
CSCC[C@H](NC(=O)[C@H](CC(=O)O)NC(=O)[C@H](CCCCN)NC(=O)[C@@H](N)Cc1c[nH]c2ccccc12)C(=O)N[C@H](C(=O)N[C@H](CCSC)C(N)=O)C(C)C [WKDMVm-NH2, Trp-Lys-Asp-Met-Val-D-Met-NH2] (H-WKDMV[dM]-NH2; N-terminus assumed)		16.3 ± 1.67	37.3 ± 2.78		1330 ± 207	
CSCC[C@H](NC(=O)[C@H](CCC(=O)O)NC(=O)[C@H](CCCCN)NC(=O)[C@@H](N)Cc1c[nH]c2ccccc12)C(=O)N[C@H](C(=O)N[C@H](CCSC)C(N)=O)C(C)C [WKEMVm-NH2, Trp-Lys-Glu-Met-Val-D-Met-NH2] (H-WKEMV[dM]-NH2; N-terminus assumed)		4.1 ± 0.21	39.2 ± 4.71		1330 ± 88.8	
CSCC[C@H](NC(=O)[C@H](Cc1c[nH]cn1)NC(=O)[C@H](CCCCN)NC(=O)[C@@H](N)Cc1c[nH]c2ccccc12)C(=O)N[C@H](C(=O)N[C@H](CCSC)C(N)=O)C(C)C [WKHMVm-NH2, Trp-Lys-His-Met-Val-D-Met-NH2] (H-WKHMV[dM]-NH2; N-terminus assumed)		29.5 ± 7.71	39.3 ± 4.10			
CSCC[C@H](NC(=O)[C@@H](N)Cc1ccc(O)cc1)C(=O)N[C@H](C(=O)N[C@H](CCSC)C(N)=O)C(C)C [YMVm-NH2, Tyr-Met-Val-D-Met-NH2] (H-YMV[dM]-NH2; N-terminus assumed)		30.2 ± 2.74	41.8 ± 3.46			
WKYMV-NH2 [WKYMV-NH2, Trp-Lys-Tyr-Met-Val-NH2]		9.2 ± 0.55	25.6 ± 2.20			inactive
WKYMVG-NH2 [WKYMVG-NH2, Trp-Lys-Tyr-Met-Val-Gly-NH2]		4.4 ± 0.54	27.3 ± 1.40			inactive
